The values that follow come from paper PMC8820799, “Angiogenesis and anti-leukaemia activity of novel indole derivatives as potent colchicine binding site inhibitors” (Journal of Enzyme Inhibition and Medicinal Chemistry, 2022).

Data set [1] has as its system transgenic zebrafish (FLK-1:EGFP). Briefly: Zebrafish angiogenesis assay (ISVs). It is filed as in vivo. Conditions: for IC50: transgenic zebrafish, triplicate, mean ± SD, read-out: Zebrafish (antiangiogenic activity IC50). The method, then:
The transgenic flk: enhanced GFP zebrafish embryos were generated by pair-wise mating, collected and sorted into the 6-well plate (n = 30 per well) with 1 ml of aquaculture water (0.2 g/L of Instant Ocean Salt in distilled water) and raised at 28 °C. Then the embryos staged at 12 h post fertilisation (hpf) were treated with the indicated concentrations of compounds which were added into embryo water. About 30 embryos were screened for each concentration gradient. At 30hpf, the treated embryos were anaesthetised with 0.02% tricaine in embryo water and photographed. The numbers of ISVs were recorded under confocal microscopy. Results were obtained from three independent determinations and presented as mean ± SD.[38]

For another data set, the system named is K562. The data set can be described thus: CCK-8 assay, K562. It is filed as cell-based. Particulars: Homo sapiens, leukaemia, CML, CCK-8, 72 h. The method, then:
(§1) Cells were seeded in 96-well plates at a density of 8 × 10^3 per well and exposed to different concentrations of compounds for 72 h. Subsequently, 10 µL CCK8 solution was added to each well and co-incubated for another 3–4 h at 37 °C. The absorbance was determined at 450 nm. Data was calculated with GraphPad Prism5 software.[32]
On the technique in general: Formazan colour is commonly taken as a measure of viable cells.

The test system of the next data set is THP-1. Briefly: CCK-8 assay, THP-1. It is filed as cell-based. Conditions: Homo sapiens, leukaemia, AML, CCK-8, 72 h. The method, then:
as §1

Another data set deals with Jurkat. Briefly: CCK-8 assay, Jurkat. Particulars: Homo sapiens, leukaemia, ALL, CCK-8, 72 h. It is filed as cell-based. The method, then:
as §1

Data set [2] deals with K562 cells. Briefly: Cell apoptosis assay by flow cytometry (Annexin V-PE/PI). It is filed as cell-based. Particulars: K562, 48 h; after treatment of 29e (control 5.95%); equals Q2+Q3 at 200 nM. As to the method: K562 cells at 8х10^4 cells/well were seeded in 12-well cell culture plates overnight and the cultured cells were incubated with a dose range of compounds 29e for 48 h. The treated or untreated cells were washed twice with PBS and stained by Annexin V-PE and PI for 15 min without light exposure according to the manufacturer’s protocol. Apoptosis was quantified using a flow cytometer ((Becton, Dickinson and Company, USA).[32]
On the technique in general: In flow cytometry, cells or beads pass a laser one at a time.

In data set [3] the test system is HUVEC. The data set can be described thus: Toxicity on HUVEC. It is filed as cell-based, human.
The nature of data set [4]: Kinetic solubility by nephelometry. It is filed as physicochemical. Particulars: kinetic from dmso stock, 1% DMSO. The method, then:
Calculated physicochemical parameters. Physicochemical properties were calculated using the ChemAxon chemistry cartridge via JChem for Excel software (version 16.4.11). Compound 29e in DMSO was spiked into either pH 6.5 phosphate buffer or 0.01 M HCl (approximately pH 2.0) with the final DMSO concentration being 1%. After 30 min had elapsed, samples were analysed via Nephelometry to determine a solubility range.

Data set [5] can be described thus: In vitro metabolic stability, human liver microsomes. It is filed as in vitro ADME. Particulars: 0.4 mg/mL protein. As to the method:
(§2) The metabolic stability assay was performed by incubating the test compound in mouse or human liver microsomes (XenoTech, lot no. 1510256) at 37 °C and a protein concentration of 0.4 mg/mL. Microsomal incubations were performed at a substrate concentration of 0.5 µM. Data analysis. Species scaling factors were used to convert the in vitro CLint(mL/min/mg) to an in vivo CLint(mL/min/kg).
Background: Microsomes from liver hold many membrane-bound enzymes, among them those of drug oxidation.

The nature of data set [6]: In vitro metabolic stability, mouse liver microsomes. It is filed as in vitro ADME. Conditions: 0.4 mg/mL protein. As to the method:
as §2

Data set [7] deals with K562 cells. Briefly: Immunofluorescence staining of microtubule network. It is filed as cell-based. Particulars: K562, 0.1 uM and 0.3 uM; Figure 4F.
The test system of data set [8] is HUVEC. The data set can be described thus: Tube formation assay. It is filed as cell-based, human. Conditions: 0.1, 1 and 10 µM. As to the method:
Matrigel matrix (Basement Membrane Matrix, BD Biosciences) was thawed at 4 °C overnight. At this point, 50 µL of the matrix solution was added to each well of a 96-well plate. After gelling at 37 °C for 30 min, the matrix was overlaid with 200 µL of medium containing 1 × 10^5 HUVECs per well, which was incubated for 6 h to allow capillary tubes to form. Different concentrations of compounds were added in the cultures and incubated for 6 h to monitor the morphological changes of cells and tubes. The disappearance of existing vasculature was photographed at 10х magnification. Values were expressed as percent change form control cultures grown with complete medium.[36] Standard dimensional parameters (percent area covered by HUVECs and total length of the HUVEC network per field) were noted, and standard topological parameters (number of meshes and branching points per field) were estimated.

In data set [9] the test system is K562 cell xenograft in zebrafish embryos. The data set can be described thus: Zebrafish xenograft of K562 cells. It is filed as in vivo. Particulars: 2 µM and 6 µM, compared with the control group. The method, then: K562 cells were labelled with Red CMTPX according to the manufacturer’s protocol. Before the microinjections, Tg(flk:EGFP) embryos were kept at 28 °C and manually dechorionated few hours. At 48 hpf, 4 nL of cells suspension containing 400 labelled cells was microinjected into the yolk of anaesthetised embryos by a pneumatic pico pump (PV820, World Precision Instruments, USA). After injection, embryos were incubated to recover for at least 1 h at 28 °C, the embryos were distributed to 6-well plates with 20 embryos placed in each well. The injected xenografts were exposed to the indicated doses of compounds and maintained at 35 °C. DMSO (0.3%) was used as a vehicle control. The survival and development of the xenografted embryos was recorded every day until the end of experiment. At one day post injection (dpi), fluorescent microscopy was used to examine K562 cells size, death and migration in caudal region of anaesthetised zebrafish.

Data set [10] concerns K562 cells. The data set can be described thus: Western blot of apoptosis-related proteins. It is filed as cell-based. Particulars: K562, 48 h. As to the method:
Exponentially growing K562 cells in were seeded in […] at a density of 6х10^5/dish and incubated overnight. The cultured cells were treated with indicated concentrations of 29e for 48 h. After the cells were washed with cold PBS, the supernatant was removed. Cells were scraped off the tissue culture dish, and then lysed by 100 µl ice-cold RIPA lysis buffer for 20 min with occasional agitation. The supernatant was collected by centrifuging at 12,000 g for 10 min at 4 °C. The protein concentration in the supernatant was determined by using a BCA protein assay kit. After BCA analysis to quantify proteins, samples were prepared in SDS-PAGE loading buffer, then boiled for 10 min at 100 °C. Western blot analyses were conducted after separation by SDS-PAGE electrophoresis and transfer to nitrocellulose filter (NC) membranes. Immunoblotting was performed according to the antibody manufacturers’ recommendations. Antibodies: caspase-3, caspase-9, PARP and β-actin.

In brackets after ≈: the same amount, converted by molar mass. Where two headings read alike, the source gives them in different places.

The term IC50 denotes the midpoint of a concentration-inhibition curve. As usually defined, the solubility is the concentration that dissolves in the medium under given conditions. As usually defined, the microsomal CLint is the capacity of the preparation to metabolise the compound, expressed as a volume cleared per time. Broadly, the half-life is the time in which the quantity being followed falls by half.

For the molecule `COc1cc(C(=O)/C=C/c2cn(S(=O)(=O)c3ccccc3)c3ccccc23)cc(OC)c1OC` [Compound 29e, (E)-3–(1-(Phenylsulfonyl)-1H-indol-3-yl)-1–(3,4,5-trimethoxyphenyl)prop-2-en-1-one], the “Formation of intersegmental vessels (ISVs) in zebrafish embryos” value in data set [1] (2.0 µM) was “efficiently blocked the formation of intersegmental vessels”. Further, in [1] (6.0 µM), the “Number and length of ISVs in zebrafish embryos” value was “the number and length of ISVs completely decreased”. The IC50 was 3600 nM in data set [1] (Danio rerio); 3400 ± 300 nM in data set [1]; 90 ± 1 nM in the data set with K562; 370 ± 30 nM with THP-1; 1220 ± 120 nM with Jurkat; 58600 nM with HUVEC [3] (Homo sapiens, HUVEC). Also, the “percentage of apoptotic cell” value in the data set with K562 cells [2] is 45.81%. In addition, in the data set on HUVEC [3] (at the concentration of 10 µM), the “toxicity on HUVEC” value is listed as “did not cause any toxicity on HUVEC”. Moreover, the solubility at 30 min in [4] (0.01 M HCl, pH 2, simulated gastric fluid, 0.01 M HCl, read-out: Solubility pH 2.0) is 25 to 50 µg/mL (≈ 52.4 to 105 µM); in data set [4] (phosphate buffer, pH 6.5, aqueous buffer, phosphate buffer, read-out: Solubility pH 6.5) it was no more than 150 µg/mL. For the same molecule, the results for the microsomal CLint at 0.5 µM in data set [5] and in [6] were 16 µL/min/mg and 77 µL/min/mg, respectively. Further, the half-life at 0.5 µM was found to be 35 min in data set [5] (37 °C, read-out: Degradation half-life Human) and 60 min in data set [6] (37 °C, read-out: Degradation half-life Mouse). The “Effect on cellular microtubule network” value in the data set with K562 cells [7] was “conspicuous disorder for the microtubule network”. Also, the HUVEC tubule-like networks entry with HUVEC [8] was “sharply reduced the width and length”. In addition, in data set [9], the “K562 fluorescence intensity and tumour area in zebrafish xenograft” value is “reduced intensities and decreased tumour area”. The “Expression of caspase-3, caspase-9 and PARP” value with K562 cells [10] is “decreased efficiently”. In addition, the “Expression of cleaved caspase-3 and PARP” value with K562 cells [10] was “up-regulation of cleaved caspase-3 and PARP”.
